≈ marks a conversion by molar mass, not a printed value.
Tests used:
E. coli [1] = experiment: Agar diffusion method, inhibition zone diameter; assay type: cell-based, Escherichia coli; details: Gram-negative
Excerpt: (§1) The bacterial growth inhibition activity of most of the newly synthesized compounds was examined against different Gram-positive and Gram-negative strains. The Agar diffusion method was used to assess the antibacterial and antifungal activity. The Gram-negative strains were: E. coli, K. pneumonia, P. aeruginosa and A. baumannii, the Gram-positive strains were: St. aureus, St. mutans and the standard antibiotics were gentamicin, tigecycline and ampicillin.
(§2) The agar-based media plate surface was inoculated by spreading a volume of the microbial inoculum over the entire agar surface.
(§3) Using a sterile cork borer or a tip, a hole with a diameter of 6 to 8 mm was made.
(§4) Using a micropipette, (20 µL) volume of the antimicrobial agent or extract solution at the desired concentration was introduced into the well.
(§5) The inoculated plates were incubated under suitable conditions depending upon the tested microorganism. The antimicrobial agent diffused through the agar medium and inhibited the growth of the microbial strain tested.
(§6) After a suitable incubation period (16 to 48 hours) according to the optimum growth conditions, the resulting inhibition zone diameters (in mm) around the wells were measured to the nearest whole millimeter at the point at which there is a prominent reduction in growth. If growth is insufficient at the recommended times, the plates should be re-incubated and read later.

K. pneumonia [2] = experiment: Agar diffusion method, inhibition zone diameter; assay type: cell-based, Klebsiella pneumonia; details: Gram-negative
Excerpt: as §1, §2, §3, §4, §5, §6

P. aeruginosa [3] = experiment: Agar diffusion method, inhibition zone diameter; assay type: cell-based, Pseudomonas aeruginosa; details: Gram-negative
Excerpt: as §1, §2, §3, §4, §5, §6

A. baumannii [4] = experiment: Agar diffusion method, inhibition zone diameter; assay type: cell-based, Acinetobacter baumannii; details: Gram-negative
Excerpt: as §1, §2, §3, §4, §5, §6

St. aureus = experiment: Agar diffusion method, inhibition zone diameter; assay type: cell-based, Staphylococcus aureus; details: Gram-positive
Excerpt: as §1, §2, §3, §4, §5, §6

E. coli [5] = experiment: Minimum inhibition concentration, serial dilution; assay type: cell-based, Escherichia coli; details: 37 °C; for MIC: Escherichia coli
Method: (§7) For each strain, three to five isolated colonies were selected from the fresh agar plate and transferred into a tube containing 3-4 ml of the sterile broth medium. The bacterial suspension was mixed well and incubated at 35-37 °C for 2-6 hours. […] After that, 1 mg of the tested compound (antimicrobial agent) was dissolved in 1 ml of DMSO and a two-fold serial dilution was done using a broth medium. A fixed volume of the prepared bacterial inoculum was added to each tube and incubated at 37 °C for 16-20 hours. The MIC is defined as the lowest concentration of the antimicrobial agent that inhibits visible growth of the tested isolate as observed with the unaided eye.

K. pneumonia [6] = experiment: Minimum inhibition concentration, serial dilution; assay type: cell-based, Klebsiella pneumonia; details: 37 °C; for MIC: Klebsiella pneumoniae
Method: as §7

P. aeruginosa [7] = experiment: Minimum inhibition concentration, serial dilution; assay type: cell-based, Pseudomonas aeruginosa; details: 37 °C; for MIC: Pseudomonas aeruginosa
Method: as §7

A. baumannii [8] = experiment: Minimum inhibition concentration, serial dilution; assay type: cell-based, Acinetobacter baumannii; details: 37 °C; for MIC: Acinetobacter baumannii
Method: as §7

St. mutans = experiment: Agar diffusion method, inhibition zone diameter; assay type: cell-based; details: Gram-positive
Excerpt: as §1, §2, §3, §4, §5, §6

[9] = target: dihydrofolate reductase in Escherichia coli (Escherichia coli, UniProt P0ABQ4); experiment: In vitro DHFR inhibition assessment; assay type: biochemical
Sequence of dihydrofolate reductase in Escherichia coli (P0ABQ4 whole entry): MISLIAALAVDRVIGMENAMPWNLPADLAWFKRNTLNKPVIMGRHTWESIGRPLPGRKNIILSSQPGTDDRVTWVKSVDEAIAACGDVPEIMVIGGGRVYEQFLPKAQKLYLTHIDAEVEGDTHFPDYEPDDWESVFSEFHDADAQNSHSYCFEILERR

Molecule	IZD E. coli (E. coli [1]) [mm]	IZD K. pneumonia (K. pneumonia [2]) [mm]	IZD P. aeruginosa (P. aeruginosa [3])	IZD A. baumannii (A. baumannii [4]) [mm]	IZD St. aureus (St. aureus) [mm]	MIC E. coli (E. coli [5]) [µg/mL]	MIC K. pneumonia (K. pneumonia [6]) [µg/mL]	MIC P. aeruginosa (P. aeruginosa [7]) [µg/mL]	MIC A. baumannii (A. baumannii [8]) [µg/mL]	MIC (E. coli [5]) [µg/mL]	MIC (K. pneumonia [6]) [µg/mL]	MIC (A. baumannii [8]) [µg/mL]	IZD St. mutans (St. mutans) [mm]	MIC (P. aeruginosa [7]) [µg/mL]	IC50 [9] [µM]	inhibitory activity against DHFR relative to trimethoprim ([9]; fold of trimethoprim, in words)
4-(2-(Benzo[d]thiazol-2-yl)acetamido)benzoic acid [2e]	35 ± 1	36 ± 1	36 ± 1 mm	36 ± 1	20 ± 1	0.03125	0.03125	0.03125	0.125							
O=C(Nc1ccccc1)C(=Cc1ccc(Cl)cc1)c1nc2ccccc2s1 [4d, 2-(Benzo[d]thiazol-2-yl)-3-(4-chlorophenyl)-N-phenylacrylamide]	20 ± 1	20 ± 1	no activity	15 ± 1						0.125 (≈ 0.32 µM)	0.125 (≈ 0.32 µM)	0.25 (≈ 0.64 µM)				
COc1ccc(C=C(C(=O)Nc2ccc(C)cc2)c2nc3ccccc3s2)cc1 [4f, 2-(Benzo[d]thiazol-2-yl)-3-(4-methoxyphenyl)-N-(p-tolyl)acrylamide]	25 ± 1.1	25 ± 1.1	20 ± 1 mm	15 ± 1.1	25 ± 1.1		0.0625 (≈ 0.156 µM)			0.0625 (≈ 0.156 µM)	0.0312 (≈ 0.078 µM)		18 ± 1.1	0.125 (≈ 0.312 µM)		
O=C(Nc1ccccc1)C(=Cc1cn(-c2ccccc2)nc1-c1ccccc1)c1nc2ccccc2s1 [6a, 2-(Benzo[d]thiazol-2-yl)-3-(1,3-diphenyl-1H-pyrazol-4-yl)-N-phenylacrylamide]	20 ± 1	20 ± 1	23 ± 1 mm							0.0625 (≈ 0.125 µM)	0.0625 (≈ 0.125 µM)			0.125 (≈ 0.251 µM)		
O=C(Nc1ccc(Cl)cc1)/C(=C\c1cn(-c2ccccc2)nc1-c1ccc(Cl)cc1)c1nc2ccccc2s1 [6i]	18 ± 0.5			19 ± 0.5	14 ± 1								15 ± 1			
N#Cc1c(-c2ccccc2)c(-c2nc3ccccc3s2)c(=O)n(-c2ccccc2)c1N [11a, 2-Amino-5-(benzo[d]thiazol-2-yl)-6-oxo-1,4-diphenyl-1,6-dihydropyridine-3-carbonitrile]	18 ± 0.5			19 ± 0.5	14 ± 1								15 ± 1			
Cc1ccc(-n2c(N)c(C#N)c(-c3ccccc3)c(-c3nc4ccccc4s3)c2=O)cc1 [11c, 2-Amino-5-(benzo[d]thiazol-2-yl)-6-oxo-4-phenyl-1-(p-tolyl)-1,6-dihydropyridine-3-carbonitrile]	35 ± 1	36 ± 1	35 ± 1 mm	35 ± 1						0.0315 (≈ 0.0725 µM)	0.0315 (≈ 0.0725 µM)	0.0315 (≈ 0.0725 µM)		0.0315 (≈ 0.0725 µM)	15 ± 0.785	half
COc1ccc(-c2c(C#N)c(N)n(-c3ccc(Cl)cc3)c(=O)c2-c2nc3ccccc3s2)cc1 [11f, 2-Amino-5-(benzo[d]thiazol-2-yl)-1-(4-chlorophenyl)-4-(4-methoxyphenyl)-6-oxo-1,6-dihydropyridine-3-carbonitrile]	17 ± 1.1	20 ± 1.1	16 ± 1 mm	15 ± 1.1	20 ± 1.1								20 ± 1.1			
CNC(C)C1CCC(N)C(OC2C(N)CC(N)C(OC3OCC(C)(O)C(NC)C3O)C2O)O1 (stereo not drawn) [Gentamicin, reference compound]	27 ± 0.1	29 ± 0.5	32 ± 0.4 mm							0.0312 (≈ 0.0654 µM)	0.0625 (≈ 0.131 µM)	0.0312 (≈ 0.0654 µM)		0.0312 (≈ 0.0654 µM)		
